From patent US9788542B2, “Safened herbicidal compositions including 4-amino-3-chloro-5-fluoro-6-(4-chloro-2-fluoro-3-methoxyphenyl)pyridine-2-carbox) acid or a derivative thereof for use in corn (maize)” (Dow AgroSciences LLC, priority 2013, dated 2017)

test system: ZEAMX = Zea mays L.; assay: Postemergence herbicidal safening in corn (maize), greenhouse, visual injury; assay type: in vivo; conditions: applied alone at 5 g ai/ha, postemergence, after 20-22 days
Protocol: (§1) When required to ensure good germination and healthy plants, a fungicide treatment and/or other chemical or physical treatment was applied. The plants were grown for 7-36 days in a greenhouse with an approximate 14 hour photoperiod which was maintained at about 18° C. during the day and 17° C. during the night. Nutrients and water were added on a regular basis and supplemental lighting was provided with overhead metal halide 1000-Watt lamps as necessary. The plants were employed for testing when they reached the second or third true leaf stage. Treatments consisted of ester (benzyl) compound of formula (I) (Compound A benzyl ester) and various safeners alone and in combination. Compound of formula (I) and safener components were applied on active ingredient basis. For treatments comprised of formulated compounds, measured amounts of compound of formula (I) were placed individually in 25 mL glass vials and diluted in a volume of 1.25% volume per volume (v/v) Agri-dex crop oil concentrate to obtain stock solutions. […] Stock solutions of the formulated safeners were prepared following the same procedure. Application solutions were prepared by mixing the required amount of each stock solution and addition of an appropriate volume of an aqueous mixture of 1.25% v/v of Agri-dex crop oil concentrate to the appropriate final concentrations of application solutions. […] Application solutions were prepared by adding an appropriate amount of each stock solution and diluted to the appropriate final concentrations with the addition of an appropriate volume of an aqueous mixture of 1.25% (v/v) Agri-dex crop oil concentrate. Application solutions were applied to the plant material with an overhead Mandel track sprayer equipped with […] nozzles calibrated to deliver 187 liters per hectare (L/ha) over an application area of 0.503 square meters (m^2) at a spray height of 18 inches ([…]) above average plant canopy. Control plants were sprayed in the same manner with the solvent blank. The treated plants and control plants were placed in a greenhouse as described above and watered by sub-irrigation to prevent wash-off of the test compounds. […] Colby's equation was used to determine the herbicidal effects expected from the mixtures (Colby, S. R. Calculation of the synergistic and antagonistic response of herbicide combinations. Weeds 1967, 15, 20-22.). The following equation was used to calculate the expected activity of mixtures containing two active ingredients, A and B: […] A=observed efficacy of active ingredient A at the same concentration as used in the mixture; B=observed efficacy of active ingredient B at the same concentration as used in the mixture.

Q: For `FC(F)(F)/C(=N/OCC1OCCO1)c1ccc(Cl)cc1` [Fluxofenim, 1-(4-chlorophenyl)-2,2,2-trifluoroethanone O-(1,3-dioxolan-2-ylmethyl)oxime], which “ZEAMX Obs (observed visual injury)” value is on record?
A: 0%

Q: With `CC1COc2ccccc2N1C(=O)C(Cl)Cl` (racemic) [Benoxacor, (±)-4-(dichloroacetyl)-3,4-dihydro-3-methyl-2H-1,4-benzoxazine] as the compound, how does the “ZEAMX Obs (observed visual injury)” value read?
A: 0%

Q: How did the “ZEAMX Obs (observed visual injury)” value turn out when `CC1(C)CN2C(=O)CCC2(C)N(C(=O)C(Cl)Cl)C1` (racemic) [Dicyclonon] was run?
A: 0%

Q: `NC(=O)NS(=O)(=O)c1ccccc1Cl` [Compound 2-CBSU, N-(aminocarbonyl)-2-chlorobenzenesulfonamide] was tested. Which “ZEAMX Obs (observed visual injury)” value did it give?
A: 0%

same assay, conditions: applied alone at 20 g ai/ha, postemergence, after 20-22 days

Q: For `CCCCCC(C)OC(=O)COc1ccc(Cl)c2cccnc12` (stereo not drawn) [Cloquintocet-mexyl], which “ZEAMX Obs (observed visual injury)” value is on record?
A: 0%

same assay, conditions: applied alone at 40 g ai/ha, postemergence, after 20-22 days

Q: `FC(F)(F)/C(=N/OCC1OCCO1)c1ccc(Cl)cc1` [Fluxofenim, 1-(4-chlorophenyl)-2,2,2-trifluoroethanone O-(1,3-dioxolan-2-ylmethyl)oxime] was tested. Which “ZEAMX Obs (observed visual injury)” value did it give?
A: 0%

Q: Which “ZEAMX Obs (observed visual injury)” value does the source give for `CC1COc2ccccc2N1C(=O)C(Cl)Cl` (racemic) [Benoxacor, (±)-4-(dichloroacetyl)-3,4-dihydro-3-methyl-2H-1,4-benzoxazine] here?
A: 0%

Q: How did the “ZEAMX Obs (observed visual injury)” value turn out when `CC1(C)CN2C(=O)CCC2(C)N(C(=O)C(Cl)Cl)C1` (racemic) [Dicyclonon] was run?
A: 0%

Q: How did the “ZEAMX Obs (observed visual injury)” value turn out when `NC(=O)NS(=O)(=O)c1ccccc1Cl` [Compound 2-CBSU, N-(aminocarbonyl)-2-chlorobenzenesulfonamide] was run?
A: 0%

Q: How did the “ZEAMX Obs (observed visual injury)” value turn out when `CCCCCC(C)OC(=O)COc1ccc(Cl)c2cccnc12` (stereo not drawn) [Cloquintocet-mexyl] was run?
A: 0%

same assay, conditions: applied alone at 80 g ai/ha, postemergence, after 20-22 days

Q: How did the “ZEAMX Obs (observed visual injury)” value turn out when `CCCCCC(C)OC(=O)COc1ccc(Cl)c2cccnc12` (stereo not drawn) [Cloquintocet-mexyl] was run?
A: 0%

same assay, conditions: applied alone at 160 g ai/ha, postemergence, after 20-22 days

Q: How did the “ZEAMX Obs (observed visual injury)” value turn out when `CCCCCC(C)OC(=O)COc1ccc(Cl)c2cccnc12` (stereo not drawn) [Cloquintocet-mexyl] was run?
A: 0%

same assay, conditions: in vivo

Q: `Cc1ccc(NC(=O)NC(C)(C)c2ccccc2)cc1` [Daimuron, N-(4-methylphenyl)-N′-(1-methyl-1-phenylethyl)-urea] was tested. Which “ZEAMX Obs (observed visual injury)” value did it give?
A: 0%

test system: ABUTH = Abutilon theophrasti Medik.; assay: Postemergence herbicidal activity, greenhouse, visual injury; assay type: in vivo; conditions: Abutilon theophrasti, post-emergence, 480 h; applied alone at 5 g ai/ha, postemergence, after 20-22 days; read-out: ABUTH Obs (observed visual injury)
Protocol: as §1

Q: How did the pest or weed control at 5 g/ha turn out when `Cc1ccc(NC(=O)NC(C)(C)c2ccccc2)cc1` [Daimuron, N-(4-methylphenyl)-N′-(1-methyl-1-phenylethyl)-urea] was run?
A: 0%

Q: With `FC(F)(F)/C(=N/OCC1OCCO1)c1ccc(Cl)cc1` [Fluxofenim, 1-(4-chlorophenyl)-2,2,2-trifluoroethanone O-(1,3-dioxolan-2-ylmethyl)oxime] as the compound, how does the pest or weed control at 5 g/ha read?
A: 0%

Q: For `CC1COc2ccccc2N1C(=O)C(Cl)Cl` (racemic) [Benoxacor, (±)-4-(dichloroacetyl)-3,4-dihydro-3-methyl-2H-1,4-benzoxazine], which pest or weed control at 5 g/ha is on record?
A: 0%

Q: For `CC1(C)CN2C(=O)CCC2(C)N(C(=O)C(Cl)Cl)C1` (racemic) [Dicyclonon], which pest or weed control at 5 g/ha is on record?
A: 0%

Q: `NC(=O)NS(=O)(=O)c1ccccc1Cl` [Compound 2-CBSU, N-(aminocarbonyl)-2-chlorobenzenesulfonamide] was tested. Which pest or weed control at 5 g/ha did it give?
A: 0%

same assay, conditions: Abutilon theophrasti, post-emergence, 480 h; applied alone at 40 g ai/ha, postemergence, after 20-22 days; read-out: ABUTH Obs (observed visual injury)

Q: `Cc1ccc(NC(=O)NC(C)(C)c2ccccc2)cc1` [Daimuron, N-(4-methylphenyl)-N′-(1-methyl-1-phenylethyl)-urea] was tested. Which pest or weed control at 40 g/ha did it give?
A: 0%

Q: `FC(F)(F)/C(=N/OCC1OCCO1)c1ccc(Cl)cc1` [Fluxofenim, 1-(4-chlorophenyl)-2,2,2-trifluoroethanone O-(1,3-dioxolan-2-ylmethyl)oxime] was tested. Which pest or weed control at 40 g/ha did it give?
A: 0%

Q: Which pest or weed control at 40 g/ha does the source give for `CC1COc2ccccc2N1C(=O)C(Cl)Cl` (racemic) [Benoxacor, (±)-4-(dichloroacetyl)-3,4-dihydro-3-methyl-2H-1,4-benzoxazine] here?
A: 0%

Q: How did the pest or weed control at 40 g/ha turn out when `CC1(C)CN2C(=O)CCC2(C)N(C(=O)C(Cl)Cl)C1` (racemic) [Dicyclonon] was run?
A: 0%

Q: Which pest or weed control at 40 g/ha does the source give for `NC(=O)NS(=O)(=O)c1ccccc1Cl` [Compound 2-CBSU, N-(aminocarbonyl)-2-chlorobenzenesulfonamide] here?
A: 0%

test system: HELAN = Helianthus annuus L.; assay: as above; assay type: in vivo; conditions: Helianthus annuus, post-emergence, 480 h; applied alone at 5 g ai/ha, postemergence, after 20-22 days; read-out: HELAN Obs (observed visual injury)
Protocol: as §1

Q: Which pest or weed control at 5 g/ha does the source give for `Cc1ccc(NC(=O)NC(C)(C)c2ccccc2)cc1` [Daimuron, N-(4-methylphenyl)-N′-(1-methyl-1-phenylethyl)-urea] here?
A: 0%

Q: With `FC(F)(F)/C(=N/OCC1OCCO1)c1ccc(Cl)cc1` [Fluxofenim, 1-(4-chlorophenyl)-2,2,2-trifluoroethanone O-(1,3-dioxolan-2-ylmethyl)oxime] as the compound, how does the pest or weed control at 5 g/ha read?
A: 0%

Q: For `CC1COc2ccccc2N1C(=O)C(Cl)Cl` (racemic) [Benoxacor, (±)-4-(dichloroacetyl)-3,4-dihydro-3-methyl-2H-1,4-benzoxazine], which pest or weed control at 5 g/ha is on record?
A: 0%

Q: With `CC1(C)CN2C(=O)CCC2(C)N(C(=O)C(Cl)Cl)C1` (racemic) [Dicyclonon] as the compound, how does the pest or weed control at 5 g/ha read?
A: 0%

Q: How did the pest or weed control at 5 g/ha turn out when `NC(=O)NS(=O)(=O)c1ccccc1Cl` [Compound 2-CBSU, N-(aminocarbonyl)-2-chlorobenzenesulfonamide] was run?
A: 0%

same assay, conditions: Helianthus annuus, post-emergence, 480 h; applied alone at 40 g ai/ha, postemergence, after 20-22 days; read-out: HELAN Obs (observed visual injury)

Q: `Cc1ccc(NC(=O)NC(C)(C)c2ccccc2)cc1` [Daimuron, N-(4-methylphenyl)-N′-(1-methyl-1-phenylethyl)-urea] was tested. Which pest or weed control at 40 g/ha did it give?
A: 0%

Q: `FC(F)(F)/C(=N/OCC1OCCO1)c1ccc(Cl)cc1` [Fluxofenim, 1-(4-chlorophenyl)-2,2,2-trifluoroethanone O-(1,3-dioxolan-2-ylmethyl)oxime] was tested. Which pest or weed control at 40 g/ha did it give?
A: 0%

Q: `CC1COc2ccccc2N1C(=O)C(Cl)Cl` (racemic) [Benoxacor, (±)-4-(dichloroacetyl)-3,4-dihydro-3-methyl-2H-1,4-benzoxazine] was tested. Which pest or weed control at 40 g/ha did it give?
A: 0%

Q: Which pest or weed control at 40 g/ha does the source give for `CC1(C)CN2C(=O)CCC2(C)N(C(=O)C(Cl)Cl)C1` (racemic) [Dicyclonon] here?
A: 0%

Q: With `NC(=O)NS(=O)(=O)c1ccccc1Cl` [Compound 2-CBSU, N-(aminocarbonyl)-2-chlorobenzenesulfonamide] as the compound, how does the pest or weed control at 40 g/ha read?
A: 0%
